# Data as given in US20090081775A1, “Microscope system and screening method for drugs, physical therapies and biohazards” (Stiftesen Unversitetsforskning Bergen, priority 2005, published 2009).
# Several values for one entry are separate records, joined by “and”; a condition that tells them apart may be missing. Equal values may be shown once.
# Test system: PC12 cells
# Test: Segmentation of WGA stained PC12 cells treated with thymidine (cell size by automated 3D segmentation)
# Type: cell-based, rat
# Experimental: PC12 and NRK cells were cultured in DMEM supplemented with 10% fetal calf serum and 5% horse serum. For high-resolution fluorescence microscopy and light microscope analysis, PC 12 cells were plated in LabTek™ chambered swell cover glasses (Nalge Nunc Int., Wiesbaden, Germany). Two hours after plating, the cells were stained with two dyes. For the experiments in which the effect of thymidine on cellular size and morphology was investigated, PC12 cells were plated on LabTek™ chambered swell cover glasses. 24 hours after plating, fresh growth medium containing 4 mM thymidine (Sigma) was added to the cells. In the control condition, fresh growth medium without thymidine was used. 24 hours afterwards cells were washed once with prewarmed fresh growth medium and grown further in growth medium without thymidine. […] To specifically display cell borders, cells were stained with wheat germ agglutinin (WGA) conjugated to either AlexaFluor™488 or AlexaFluor™594 (Invitrogen). WGA-AlexaFluor™594 is a lectin which binds glycogenfugates like N-acetylglucosamine and therefore stains biological membranes efficiently. CellTracker™ (CellTracker™, Molecular Probes Inc., Eugene, Oreg., USA) passes freely through cell membranes, but once inside a cell, it is transformed into cell-impermeant reaction products and is retained in living cells through several generations. […]
# High resolution, […] fluorescence microscopy was performed with an Olympus IX70 microscope (Olympus Optical Co. Europa GmbH, Hamburg) or a Zeiss Axiovert 200M (Bergman A S, Lilleström, Norway) both equipped with 100× oil-immersion objectives, monochromator-based illumination systems (T.I.L.L. Photonics GmbH, Martinsried, Germany), tripleband filtersets DAPI/FITC/TRITC F61-020 (AHF Analysetechnik AG, Tübingen, Germany) and piezo z-steppers (Physik Instrumente GmbH & Co., Karlsruhe, Germany). […] With both the wide-field and confocal imaging setups, WGA-stained cells were analyzed in 3D by acquiring single focal planes 300 to 400 nm apart from each other in the z-direction spanning the whole cellular volume. […]
# [1] = 4 mM thymidine for 24 hours, then 24 hours without, mid plane 2D, mean and SEM, three experiments, listed as tymidine
smiles,measurement,setting,value
Cc1cn([C@H]2C[C@H](O)[C@@H](CO)O2)c(=O)[nH]c1=O [thymidine],"Dmaj (+): mean major axis length, treated group",[1],15.26 + 0.40 μm and 16.79 + 0.32 μm and 15.83 + 0.25 μm
same,"Dmin (+): mean minor axis length, treated group",[1],9.98 + 0.32 μm and 9.21 + 0.19 μm and 9.01 + 0.18 μm
same,mean size of a cell treated with thymidine compared to a control group,conclusion from three experiments,increase
